Experimental data reported in patent US12252524B2, “GIP/GLP1 co-agonist compounds” (Eli Lilly and Company, priority 2018, dated 2025).
Numbered stars: 1 amine (or outer) side, 2 acyl side, 3 side chain; on linkers, the order of the positions; unused ones are H or OH. Square brackets hold non-standard residues; d marks the D form. Side chains are listed from the residue outwards. Peptide text beside a SMILES is read from it. * marks the point of attachment. C20 diacid = O=C(O)CCCCCCCCCCCCCCCCCCC(=O)*; γGlu = O=C(O)[C@H](CCC(=O)[*:2])N[*:1]; AEEA = NCCOCCOCC(=O)O; Aib = CC(C)(N)C(=O)O

Tests used:
human GIP receptor = biological target: T1, human GIP receptor (Homo sapiens, UniProt P48546); assay: [125I]-GIP binding (SPA), human GIP receptor; details: read-out: hGIPR Ki, nM (SEM, n)
T1 construct: expressed in transfected cells; crude membranes
T1 sequence (P48546 22-466): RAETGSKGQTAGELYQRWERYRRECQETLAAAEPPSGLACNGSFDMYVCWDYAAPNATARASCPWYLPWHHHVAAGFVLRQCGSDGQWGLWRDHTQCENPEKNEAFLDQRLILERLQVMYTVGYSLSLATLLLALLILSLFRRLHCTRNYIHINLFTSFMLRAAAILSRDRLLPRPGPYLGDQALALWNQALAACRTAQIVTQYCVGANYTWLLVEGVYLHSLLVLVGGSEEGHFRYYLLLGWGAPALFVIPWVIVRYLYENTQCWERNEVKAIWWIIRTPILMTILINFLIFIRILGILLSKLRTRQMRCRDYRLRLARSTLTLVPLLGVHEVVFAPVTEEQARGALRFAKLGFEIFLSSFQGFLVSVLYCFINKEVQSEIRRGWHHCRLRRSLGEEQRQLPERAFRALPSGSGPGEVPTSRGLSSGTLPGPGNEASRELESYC

human Gcg receptor = biological target: T2, human Gcg receptor (Homo sapiens, UniProt P47871); assay: [125I]-Glucagon binding (SPA), human Gcg receptor; details: read-out: hGLcgR Ki, nM (SEM, n)
T2 construct: expressed in transfected cells; crude membranes
Procedure, shortened: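 Scintillation counts are taken after membranes and WGA beads incubate and settle for 12 hours at room temperature. Buffer is 25 mM HEPES, pH 7.4, with CaCl2, MgCl2, bacitracin and Tween-20. Ki values, from four-parameter IC50 fits, are geometric means over independent days.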

human GLP-1R = human GLP-1R (Homo sapiens, UniProt P43220); assay: [125I]-GLP-1 binding (SPA), human GLP-1 receptor; parameters: expressed in transfected cells; crude membranes; details: read-out: hGLP1R Ki, (nM) (SEM, n)
Procedure, shortened: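 Frozen cell pellets are lysed on ice in hypotonic Tris buffer, pH 7.5, homogenized, and centrifuged to a membrane pellet resuspended at about 1 to 3 mg/mL. Binding is then measured in HEPES-based buffer at pH 7.4, and curves are fitted to give IC50 and Ki.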

[1] = biological target: human GLP-1 receptor (GLP-1R) (Homo sapiens, UniProt P43220); assay: cAMP pharmacological functional assay in presence of casein, hGLP-1R; format: cell-based; details: HEK293 cells expressing hGLP-1R, 0.1% Casein, geometric mean; read-out: hGLP1R cAMP Rel EC50 nM (SEM, n)
[2] = biological target: T3, gastric inhibitory peptide receptor (GIPR) (Homo sapiens, UniProt P48546); assay: cAMP pharmacological functional assay in presence of casein, hGIPR; format: cell-based; details: HEK293 cells expressing hGIPR, 0.1% Casein, geometric mean; read-out: hGIPR cAMP Rel EC50 nM (SEM, n)
T3 sequence (P48546 22-466): T1 sequence (P48546 22-466)

T2 sequence (P47871 26-477): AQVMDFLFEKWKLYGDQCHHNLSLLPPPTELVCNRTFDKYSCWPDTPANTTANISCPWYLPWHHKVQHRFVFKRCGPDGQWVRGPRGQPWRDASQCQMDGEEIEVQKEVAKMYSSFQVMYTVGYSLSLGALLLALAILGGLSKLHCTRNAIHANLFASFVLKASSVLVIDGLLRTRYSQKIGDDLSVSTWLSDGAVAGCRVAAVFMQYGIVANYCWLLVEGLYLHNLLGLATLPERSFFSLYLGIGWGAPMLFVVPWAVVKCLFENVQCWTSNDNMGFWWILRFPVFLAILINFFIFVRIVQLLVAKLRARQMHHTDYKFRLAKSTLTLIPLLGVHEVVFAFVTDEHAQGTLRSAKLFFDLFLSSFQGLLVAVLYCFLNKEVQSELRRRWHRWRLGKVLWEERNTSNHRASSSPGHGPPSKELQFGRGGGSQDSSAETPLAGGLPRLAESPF
Sequence of human GLP-1 receptor (GLP-1R) (P43220 24-463): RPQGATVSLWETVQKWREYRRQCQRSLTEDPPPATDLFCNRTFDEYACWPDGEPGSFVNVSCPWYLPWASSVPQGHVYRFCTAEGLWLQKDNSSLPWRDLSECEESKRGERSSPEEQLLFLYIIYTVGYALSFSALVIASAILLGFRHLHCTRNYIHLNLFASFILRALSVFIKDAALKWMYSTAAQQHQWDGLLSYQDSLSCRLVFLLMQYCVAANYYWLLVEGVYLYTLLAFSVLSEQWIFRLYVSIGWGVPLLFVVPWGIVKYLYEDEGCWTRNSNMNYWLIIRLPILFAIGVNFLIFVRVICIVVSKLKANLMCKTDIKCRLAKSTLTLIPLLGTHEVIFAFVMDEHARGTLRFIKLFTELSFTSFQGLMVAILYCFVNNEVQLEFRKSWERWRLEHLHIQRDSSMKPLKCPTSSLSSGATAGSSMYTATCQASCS
Sequence of human GLP-1R (P43220 24-463): as above

| Ki (human GIP receptor) [nM] | Ki (human Gcg receptor) [nM] | Ki (human GLP-1R) [nM] | EC50 [1] [nM] | EC50 [2] [nM] | Structure (SMILES) |
| --- | --- | --- | --- | --- | --- |
| 0.0568 | 220 | 4.71 | 0.0961 | 0.0794 | CC[C@H](C)[C@H](NC(=O)[C@H](CC(C)C)NC(=O)[C@H](Cc1ccc(O)cc1)NC(=O)[C@H](CCC(=O)O)NC(=O)[C@@H](NC(=O)[C@H](Cc1ccccc1)NC(=O)[C@H](C)NC(=O)C(C)(C)NC(=O)[C@H](CCC(N)=O)NC(=O)[C@H](C)NC(=O)[C@H](CCCCNC(=O)COCCOCCNC(=O)COCCOCCNC(=O)CC[C@H](NC(=O)CCCCCCCCCCCCCCCCCCC(=O)O)C(=O)O)NC(=O)[C@H](CCCCN)NC(=O)[C@H](CC(=O)O)NC(=O)[C@H](CC(C)C)NC(=O)[C@H](CC(C)C)NC(=O)[C@@H](NC(=O)[C@H](CO)NC(=O)[C@H](Cc1ccc(O)cc1)NC(=O)[C@H](CC(=O)O)NC(=O)[C@H](CO)NC(=O)[C@@H](NC(=O)[C@H](Cc1ccccc1)NC(=O)[C@@H](NC(=O)CNC(=O)[C@H](CCC(=O)O)NC(=O)C(C)(C)NC(=O)[C@@H](N)Cc1ccc(O)cc1)[C@@H](C)O)[C@@H](C)O)[C@@H](C)CC)[C@@H](C)CC)C(=O)N[C@@H](CCC(=O)O)C(=O)NCC(=O)NCC(=O)N1CCC[C@H]1C(=O)N[C@@H](CO)C(=O)N[C@@H](CO)C(=O)NCC(N)=O [Example 50] (H-Y[Aib]EGTFTSDYSILLDKK([AEEA-AEEA-γGlu-C20 diacid])AQ[Aib]AFIEYLIEGGPSSG-NH2) |
| 0.062 | 195 | 5.62 | 0.153 | 0.096 | CC[C@H](C)[C@H](NC(=O)[C@H](CC(C)C)NC(=O)[C@H](Cc1ccc(O)cc1)NC(=O)[C@H](CCC(=O)O)NC(=O)[C@@H](NC(=O)[C@H](Cc1ccccc1)NC(=O)[C@H](C)NC(=O)C(C)(C)NC(=O)[C@H](CCC(N)=O)NC(=O)[C@H](C)NC(=O)[C@H](CCCCNC(=O)COCCOCCNC(=O)COCCOCCNC(=O)CC[C@H](NC(=O)CCCCCCCCCCCCCCCCCCC(=O)O)C(=O)O)NC(=O)[C@H](CCCCN)NC(=O)[C@H](CC(=O)O)NC(=O)[C@H](CC(C)C)NC(=O)[C@H](CC(C)C)NC(=O)[C@@H](NC(=O)[C@H](CO)NC(=O)[C@H](Cc1ccc(O)cc1)NC(=O)[C@H](CC(=O)O)NC(=O)[C@H](CO)NC(=O)[C@@H](NC(=O)[C@H](Cc1ccccc1)NC(=O)[C@@H](NC(=O)CNC(=O)[C@H](CCC(=O)O)NC(=O)C(C)(C)NC(=O)[C@@H](N)Cc1ccc(O)cc1)[C@@H](C)O)[C@@H](C)O)[C@@H](C)CC)[C@@H](C)CC)C(=O)N[C@@H](CCC(=O)O)C(=O)NCC(=O)NCC(N)=O [Example 51] (H-Y[Aib]EGTFTSDYSILLDKK([AEEA-AEEA-γGlu-C20 diacid])AQ[Aib]AFIEYLIEGG-NH2) |

The next lines start with the compound.

| Structure (SMILES) | Ki (human GIP receptor) [nM] | Ki (human Gcg receptor) [nM] | Ki (human GLP-1R) [nM] | EC50 [1] [nM] | EC50 [2] [nM] |
| --- | --- | --- | --- | --- | --- |
| CC[C@H](C)[C@H](NC(=O)[C@H](CCCCN)NC(=O)[C@H](CC(=O)O)NC(=O)[C@H](CC(C)C)NC(=O)[C@H](CC(C)C)NC(=O)[C@@H](NC(=O)[C@H](CO)NC(=O)[C@H](Cc1ccc(O)cc1)NC(=O)[C@H](CC(=O)O)NC(=O)[C@H](CO)NC(=O)[C@@H](NC(=O)[C@H](Cc1ccccc1)NC(=O)[C@@H](NC(=O)CNC(=O)[C@H](CCC(=O)O)NC(=O)C(C)(C)NC(=O)[C@@H](N)Cc1ccc(O)cc1)[C@@H](C)O)[C@@H](C)O)[C@@H](C)CC)C(=O)N[C@@H](C)C(=O)N[C@@H](CCC(N)=O)C(=O)NC(C)(C)C(=O)N[C@@H](C)C(=O)N[C@@H](Cc1ccccc1)C(=O)N[C@H](C(=O)N[C@@H](CCC(=O)O)C(=O)N[C@@H](Cc1ccc(O)cc1)C(=O)N[C@@H](CC(C)C)C(=O)N[C@H](C(=O)N[C@@H](CCC(=O)O)C(=O)NCC(=O)NCC(=O)N1CCC[C@H]1C(=O)N[C@@H](CO)C(=O)N[C@@H](CO)C(=O)NCC(=O)N[C@@H](C)C(=O)N1CCC[C@H]1C(=O)N[C@@H](CCCCNC(=O)COCCOCCNC(=O)COCCOCCNC(=O)CC[C@H](NC(=O)CCCCCCCCCCCCCCCCCCC(=O)O)C(=O)O)C(=O)N1CCC[C@H]1C(=O)N[C@@H](CO)C(N)=O)[C@@H](C)CC)[C@@H](C)CC [Example 46] (H-Y[Aib]EGTFTSDYSILLDKIAQ[Aib]AFIEYLIEGGPSSGAPK([AEEA-AEEA-γGlu-C20 diacid])PS-NH2) | 0.0852 | 133 | 13.4 | 0.687 | 0.172 |
| CC[C@H](C)[C@H](NC(=O)[C@H](CCCCN)NC(=O)[C@H](CC(=O)O)NC(=O)[C@H](CC(C)C)NC(=O)[C@H](CC(C)C)NC(=O)[C@@H](NC(=O)[C@H](CO)NC(=O)[C@H](Cc1ccc(O)cc1)NC(=O)[C@H](CC(=O)O)NC(=O)[C@H](CO)NC(=O)[C@@H](NC(=O)[C@H](Cc1ccccc1)NC(=O)[C@@H](NC(=O)CNC(=O)[C@H](CCC(=O)O)NC(=O)C(C)(C)NC(=O)[C@@H](N)Cc1ccc(O)cc1)[C@@H](C)O)[C@@H](C)O)[C@@H](C)CC)C(=O)N[C@@H](C)C(=O)N[C@@H](CCC(N)=O)C(=O)NC(C)(C)C(=O)N[C@@H](C)C(=O)N[C@@H](Cc1ccccc1)C(=O)N[C@H](C(=O)N[C@@H](CCC(=O)O)C(=O)N[C@@H](Cc1ccc(O)cc1)C(=O)N[C@@H](CC(C)C)C(=O)N[C@H](C(=O)N[C@@H](CCC(=O)O)C(=O)NCC(=O)NCC(=O)N1CCC[C@H]1C(=O)N[C@@H](CO)C(=O)N[C@@H](CO)C(=O)NCC(=O)N[C@@H](C)C(=O)N1CCC[C@H]1C(=O)N1CCC[C@H]1C(=O)N1CCC[C@H]1C(=O)N[C@@H](CCCCNC(=O)COCCOCCNC(=O)COCCOCCNC(=O)CC[C@H](NC(=O)CCCCCCCCCCCCCCCCCCC(=O)O)C(=O)O)C(N)=O)[C@@H](C)CC)[C@@H](C)CC [Example 48] (H-Y[Aib]EGTFTSDYSILLDKIAQ[Aib]AFIEYLIEGGPSSGAPPPK([AEEA-AEEA-γGlu-C20 diacid])-NH2; N-terminus assumed) | 0.074 | 111 | 15.7 | 0.691 | 0.168 |
| CC[C@H](C)[C@H](NC(=O)[C@H](CCCCN)NC(=O)[C@H](CC(=O)O)NC(=O)[C@H](CC(C)C)NC(=O)[C@H](CC(C)C)NC(=O)[C@@H](NC(=O)[C@H](CO)NC(=O)[C@H](Cc1ccc(O)cc1)NC(=O)[C@H](CC(=O)O)NC(=O)[C@H](CO)NC(=O)[C@@H](NC(=O)[C@H](Cc1ccccc1)NC(=O)[C@@H](NC(=O)CNC(=O)[C@H](CCC(=O)O)NC(=O)C(C)(C)NC(=O)[C@@H](N)Cc1ccc(O)cc1)[C@@H](C)O)[C@@H](C)O)[C@@H](C)CC)C(=O)N[C@@H](C)C(=O)N[C@@H](CCC(N)=O)C(=O)NC(C)(C)C(=O)N[C@@H](C)C(=O)N[C@@H](Cc1ccccc1)C(=O)N[C@H](C(=O)N[C@@H](CCC(=O)O)C(=O)N[C@@H](Cc1ccc(O)cc1)C(=O)N[C@@H](CC(C)C)C(=O)N[C@H](C(=O)N[C@@H](CCC(=O)O)C(=O)NCC(=O)NCC(=O)N1CCC[C@H]1C(=O)N[C@@H](CO)C(=O)N[C@@H](CO)C(=O)NCC(=O)N[C@@H](C)C(=O)N1CCC[C@H]1C(=O)N1CCC[C@H]1C(=O)N1CCC[C@H]1C(=O)N[C@@H](CO)C(=O)N[C@@H](CCCCNC(=O)COCCOCCNC(=O)COCCOCCNC(=O)CC[C@H](NC(=O)CCCCCCCCCCCCCCCCCCC(=O)O)C(=O)O)C(N)=O)[C@@H](C)CC)[C@@H](C)CC [Example 49] (H-Y[Aib]EGTFTSDYSILLDKIAQ[Aib]AFIEYLIEGGPSSGAPPPSK([AEEA-AEEA-γGlu-C20 diacid])-NH2; N-terminus assumed) | 0.087 | 236 | 12.3 | 0.597 | 0.0868 |
